# Key:
# K562 [1] = test: Antiproliferative activity was determined after 48 hr exposure to human myelogenous leukemia K562 cells; type: functional, cell-based; conditions: K562, 48 h
# [2] = Antiproliferative activity was determined after 48 hr exposure to human melanoma Fem-X cell; type: functional, cell-based
# HeLa = test: Antiproliferative activity was determined after 48 hr exposure to human cervix carcinoma HeLa cells; type: functional, cell-based
# K562 [3] = test: Antiproliferative activity was determined after 72 hr exposure to human myelogenous leukemia K562 cells; type: functional, cell-based; conditions: K562, 72 h
# [4] = Antiproliferative activity was determined after 72 hr exposure to normal human peripheral blood mononuclear cells (PBMC) in the presence of 5 ug/mL Phytohemagglutinine; type: functional
# [5] = Antiproliferative activity was determined after 72 hr exposure to human melanoma Fem-x cells; type: functional, cell-based
# [6] = Antiproliferative activity was determined after 72 hr exposure to normal human peripheral blood mononuclear cells (PBMC) in the absence of 5 ug/mL Phytohemagglutinine; type: functional
# P388 = test: Concentration required for antiproliferative activity against P388 cell survival by 50%; type: functional, cell-based; conditions: Mus musculus
Compound,IC50 (K562 [1]) [µM],IC50 [2] [µM],IC50 (HeLa) [µM],IC50 (K562 [3]) [µM],IC50 [4] [µM],IC50 [5] [µM],IC50 [6] [µM],IC50 (P388) [µM]
C[C@]12CCC3C(CC[C@]45O[C@H]4[C@@H](O)C=C[C@]35O)C1CCC2O (some centres undefined),> 270,> 270,> 270,,,,,
C[C@]12CCC3C(CCC4=CC(=O)C=C[C@@]43O)C1CCC2=O (some centres undefined),> 100,> 100,> 100,,,,,
C[C@]12CCC3[C@@H](CCC4=C(Br)C(=O)C=C[C@@]43O)[C@@H]1CCC2=O (some centres undefined),13.7,14.5,6.17,5.9,5.2,4.6,12.3,
C[C@]12CCC3[C@@H](CC[C@]45O[C@H]4C(=O)C(Br)=C[C@]35O)[C@@H]1CCC2=O (some centres undefined),1.2,6,2.5,0.7,1.3,1,2.9,
C[C@]12CC[C@H]3[C@@H](CC[C@]45O[C@H]4C(=O)C=C[C@]35O)[C@@H]1CCC2=O,6.22,7.1,5.73,,,,,
O=C1C(Br)=C[C@H](O)[C@H]2O[C@@H]12,,,,,,,,0.049

# — ChEMBL document CHEMBL1134697, “Synthesis and antiproliferative activity of epoxy and bromo compounds derived from estrone” (Bioorg Med Chem Lett, 2001)
